In the supplement of paper PMC10307832:

What was measured:
Test in all cases: relative viability (nuclei count vs DMSO), 5 days (fraction); higher = more cells survive
LK-2 = system: LK-2
Procedure, shortened: (§1)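 Values are medians from duplicate plates. Each reflects relative viability, defined as the nuclei count of treated wells over that of vehicle wells. Lung cancer cell lines in 1536-well plates were pin-tool dosed one day after seeding with one drug alone or with a fixed anchor-drug dose plus five library-drug doses (not always all listed) in √10 steps, then fixed, stained and imaged at 4× after 5 days.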

NCI-H1648 = system: NCI-H1648
Procedure, shortened: as §1

CAL-12T = system: CAL-12T
Procedure, shortened: as §1

NCI-H1623 = system: NCI-H1623
Procedure, shortened: as §1

NCI-H522 = system: NCI-H522
Procedure, shortened: as §1

NCI-H1650 = system: NCI-H1650
Procedure, shortened: as §1

A549 = system: A549
Procedure, shortened: as §1

IA-LM = system: IA-LM
Procedure, shortened: as §1

Calu-6 = system: Calu-6
Procedure, shortened: as §1

NCI-H1703 = system: NCI-H1703
Procedure, shortened: as §1

NCI-H1299 = system: NCI-H1299
Procedure, shortened: as §1

EBC-1 = system: EBC-1
Procedure, shortened: as §1

CC1(C)CCC(c2ccc(Cl)cc2)=C(CN2CCN(c3ccc(C(=O)NS(=O)(=O)c4ccc(N[C@H](CCN5CCOCC5)CSc5ccccc5)c(S(=O)(=O)C(F)(F)F)c4)cc3)CC2)C1 [Navitoclax] + Cc1cc(Nc2cc(N3CCN(C)CC3)nc(Sc3ccc(NC(=O)C4CC4)cc3)n2)n[nH]1 [Tozasertib] (partner 0.1 µM)
relative viability (LK-2; first compound 0.005 µM): 0.189 | relative viability (LK-2; first compound 0.01581 µM): 0.187 | relative viability (LK-2; first compound 0.05 µM): 0.198 | relative viability (LK-2; first compound 0.1581 µM): 0.159 | relative viability (LK-2; first compound 0.5 µM): 0.2 | relative viability (NCI-H1648; first compound 0.005 µM): 0.609 | relative viability (NCI-H1648; first compound 0.01581 µM): 0.506 | relative viability (NCI-H1648; first compound 0.1581 µM): 0.459 | relative viability (NCI-H1648; first compound 0.5 µM): 0.575 | relative viability (CAL-12T; first compound 0.005 µM): 0.273 | relative viability (CAL-12T; first compound 0.01581 µM): 0.354 | relative viability (CAL-12T; first compound 0.05 µM): 0.312 | relative viability (CAL-12T; first compound 0.1581 µM): 0.347 | relative viability (CAL-12T; first compound 0.5 µM): 0.308 | relative viability (NCI-H1623; first compound 0.005 µM): 0.406 | relative viability (NCI-H1623; first compound 0.01581 µM): 0.405 | relative viability (NCI-H1623; first compound 0.05 µM): 0.415 | relative viability (NCI-H1623; first compound 0.1581 µM): 0.464 | relative viability (NCI-H1623; first compound 0.5 µM): 0.4 | relative viability (NCI-H522; first compound 0.005 µM): 0.574 | relative viability (NCI-H522; first compound 0.01581 µM): 0.535 | relative viability (NCI-H522; first compound 0.05 µM): 0.607 | relative viability (NCI-H522; first compound 0.1581 µM): 0.631 | relative viability (NCI-H522; first compound 0.5 µM): 0.669 | relative viability (NCI-H1650; first compound 0.005 µM): 0.363 | relative viability (NCI-H1650; first compound 0.01581 µM): 0.419 | relative viability (NCI-H1650; first compound 0.05 µM): 0.415 | relative viability (NCI-H1650; first compound 0.1581 µM): 0.34 | relative viability (NCI-H1650; first compound 0.5 µM): 0.356

Oc1nc(-c2ccc(C(F)(F)F)cc2)nc2c1CSCC2 [XAV939] + COc1cccc2cc(-c3nc([C@H]4CC[C@H](C(=O)O)CC4)n4ncnc(N)c34)[nH]c12 [OSI-027] (partner 0.5 µM)
relative viability (LK-2; first compound 0.08 µM): 0.168 | relative viability (LK-2; first compound 0.253 µM): 0.232 | relative viability (LK-2; first compound 0.8 µM): 0.188 | relative viability (LK-2; first compound 2.53 µM): 0.206 | relative viability (NCI-H1648; first compound 0.08 µM): 0.273 | relative viability (NCI-H1648; first compound 0.8 µM): 0.236 | relative viability (NCI-H1648; first compound 2.53 µM): 0.225 | relative viability (CAL-12T; first compound 0.08 µM): 0.635 | relative viability (CAL-12T; first compound 0.253 µM): 0.363 | relative viability (CAL-12T; first compound 0.8 µM): 0.441 | relative viability (CAL-12T; first compound 2.53 µM): 0.335 | relative viability (NCI-H1623; first compound 0.08 µM): 0.364 | relative viability (NCI-H1623; first compound 0.253 µM): 0.386 | relative viability (NCI-H1623; first compound 0.8 µM): 0.318 | relative viability (NCI-H1623; first compound 2.53 µM): 0.4 | relative viability (NCI-H522; first compound 0.08 µM): 0.564 | relative viability (NCI-H522; first compound 0.253 µM): 0.696 | relative viability (NCI-H522; first compound 0.8 µM): 0.68 | relative viability (NCI-H522; first compound 2.53 µM): 0.643 | relative viability (NCI-H1650; first compound 0.08 µM): 0.817 | relative viability (NCI-H1650; first compound 0.253 µM): 0.6 | relative viability (NCI-H1650; first compound 0.8 µM): 0.742 | relative viability (NCI-H1650; first compound 2.53 µM): 0.443

C=C1C(=O)O[C@@H](CCCCCCCC)[C@@H]1C(=O)O [C-75] + COc1cc2c(Oc3ccc(NC(=O)C4(C(=O)Nc5ccc(F)cc5)CC4)cc3F)ccnc2cc1OCCCN1CCOCC1 [Foretinib] (partner 0.25 µM)
relative viability (A549; first compound 0.08 µM): 0.946 | relative viability (A549; first compound 0.253 µM): 0.977 | relative viability (A549; first compound 0.8 µM): 1.01 | relative viability (A549; first compound 8 µM): 0.869 | relative viability (IA-LM; first compound 0.08 µM): 1.14 | relative viability (IA-LM; first compound 0.253 µM): 1.38 | relative viability (IA-LM; first compound 0.8 µM): 1.02 | relative viability (IA-LM; first compound 2.53 µM): 1.25 | relative viability (IA-LM; first compound 8 µM): 1.01 | relative viability (Calu-6; first compound 0.08 µM): 0.875 | relative viability (Calu-6; first compound 0.253 µM): 0.914 | relative viability (Calu-6; first compound 0.8 µM): 0.81 | relative viability (Calu-6; first compound 2.53 µM): 0.634 | relative viability (Calu-6; first compound 8 µM): 0.907 | relative viability (LK-2; first compound 0.08 µM): 0.944 | relative viability (LK-2; first compound 0.253 µM): 1.23 | relative viability (LK-2; first compound 0.8 µM): 1.15 | relative viability (LK-2; first compound 2.53 µM): 1.35 | relative viability (LK-2; first compound 8 µM): 1.06 | relative viability (NCI-H1703; first compound 0.08 µM): 0.399 | relative viability (NCI-H1703; first compound 0.253 µM): 0.334 | relative viability (NCI-H1703; first compound 0.8 µM): 0.325 | relative viability (NCI-H1703; first compound 2.53 µM): 0.355 | relative viability (NCI-H1703; first compound 8 µM): 0.388 | relative viability (NCI-H1299; first compound 0.08 µM): 1.12 | relative viability (NCI-H1299; first compound 0.253 µM): 1.03 | relative viability (NCI-H1299; first compound 0.8 µM): 1.04 | relative viability (NCI-H1299; first compound 2.53 µM): 1.04 | relative viability (NCI-H1299; first compound 8 µM): 1.11 | relative viability (CAL-12T; first compound 0.08 µM): 1.17 | relative viability (CAL-12T; first compound 0.253 µM): 1.34 | relative viability (CAL-12T; first compound 0.8 µM): 1.07 | relative viability (CAL-12T; first compound 2.53 µM): 1.05 | relative viability (CAL-12T; first compound 8 µM): 1.25 | relative viability (NCI-H1623; first compound 0.08 µM): 0.861 | relative viability (NCI-H1623; first compound 0.253 µM): 1.09 | relative viability (NCI-H1623; first compound 0.8 µM): 0.747 | relative viability (NCI-H1623; first compound 2.53 µM): 0.686 | relative viability (NCI-H1623; first compound 8 µM): 0.993 | relative viability (EBC-1; first compound 0.08 µM): 0.101 | relative viability (EBC-1; first compound 0.253 µM): 0.11 | relative viability (EBC-1; first compound 0.8 µM): 0.107 | relative viability (EBC-1; first compound 8 µM): 0.0983 | relative viability (NCI-H1650; first compound 0.08 µM): 1.2 | relative viability (NCI-H1650; first compound 0.253 µM): 1.41 | relative viability (NCI-H1650; first compound 2.53 µM): 1.11 | relative viability (NCI-H1650; first compound 8 µM): 1.04
